We go through 40 compounds from patent US12685312B2, “Sulfonamide apyrase inhibitors” (Texas Crop Science, Inc., priority 2022, dated 2026).

For this assay, the system named is apyrase. As to the kind of experiment: Screen for apyrase inhibitors (Method 1, in vitro phosphate-release absorbance assay). It counts as biochemical. The settings on record: inhibitor conc at 1 mM stock, 1 hr room temperature, absorbance 630 nm; rounded average of two assay results. In a few lines:
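Phosphate-release colorimetric assay (Windsor method) in 60 mM Hepes, 3 mM MgCl2, 3 mM CaCl2, 3 mM ATP, pH 6.5, with compound or DMSO control added. Released phosphate developed with ammonium molybdate and ascorbic acid/TCA, then stopped with citrate/acetic acid.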
In the case of `CC(=O)NS(=O)(=O)c1ccc(NC(=O)c2cccc(S(=O)(=O)N3CCc4ccccc43)c2)cc1` [I-608, N-(4-(N-acetylsulfamoyl)phenyl)-3-(indolin-1-ylsulfonyl)benzamide], the “% Inhibition of Apyrase” value is listed as 14%.

Take `O=C(Nc1ccc(-n2cnnn2)cc1)c1cccc(S(=O)(=O)N2CCc3ccccc32)c1` [I-535, N-(4-(1H-tetrazol-1-yl)phenyl)-3-(indolin-1-ylsulfonyl)benzamide]: the “% Inhibition of Apyrase” value is recorded as 54%.

Consider `CS(=O)(=O)c1ccc2c(c1)N(C(=O)c1cccc(S(=O)(=O)N3CCc4ccccc43)c1)CCC2` [I-603, (3-(indolin-1-ylsulfonyl)phenyl)(7-(methylsulfonyl)-3,4-dihydroquinolin-1(2H)-yl)methanone], for which the “% Inhibition of Apyrase” value is given as 25%.

As to `COc1ccc(C)cc1NC(=O)c1cccc(S(=O)(=O)N2CCc3ccccc32)c1` [I-473, 3-(indolin-1-ylsulfonyl)-N-(2-methoxy-5-methylphenyl)benzamide], the “% Inhibition of Apyrase” value amounted to 59%.

As to `O=C(Nc1ccccc1NS(=O)(=O)c1ccc(F)cc1)c1ccc(Cl)cc1` [I-839, 4-chloro-N-(2-((4-fluorophenyl)sulfonamido)phenyl)benzamide], the “% Inhibition of Apyrase” value is on record as 23%.

Take `O=C(Nc1cc(Cl)ccc1NS(=O)(=O)c1ccccc1F)c1ccccc1` [I-845, N-(5-chloro-2-((2-fluorophenyl)sulfonamido)phenyl)benzamide]: the “% Inhibition of Apyrase” value turned out to be 1%.

As to `O=C(Nc1cccc([N+](=O)[O-])c1)c1ccc(Br)c(S(=O)(=O)Nc2ccc(F)cc2)c1` [I-19, 4-bromo-3-(N-(4-fluorophenyl)sulfamoyl)-N-(3-nitrophenyl)benzamide], the “% Inhibition of Apyrase” value came to 50%.

On to `O=C(Nc1ccc(S(=O)(=O)Nc2ccc(F)c(Cl)c2)cc1)c1cccc([N+](=O)[O-])c1` [I-972, N-(4-(N-(3-chloro-4-fluorophenyl)sulfamoyl)phenyl)-3-nitrobenzamide], for which the “% Inhibition of Apyrase” value is 66%.

Consider `CN(c1ccccc1)S(=O)(=O)c1cccc(NC(=O)c2cc(Cl)nc3ccccc23)c1` [I-739, 2-chloro-N-(3-(N-methyl-N-phenylsulfamoyl)phenyl)quinoline-4-carboxamide], for which the “% Inhibition of Apyrase” value worked out at 52%.

`O=C(Nc1ccccc1OC(F)F)c1ccc(S(=O)(=O)Nc2ccccc2)cc1` [I-405, N-(2-(difluoromethoxy)phenyl)-4-(N-phenylsulfamoyl)benzamide]: the “% Inhibition of Apyrase” value is 35%.

Regarding `COc1cc(OC)c(NS(=O)(=O)c2ccc(C)c(C(=O)N3CCc4ccccc43)c2)cc1Cl` [I-570, N-(5-chloro-2,4-dimethoxyphenyl)-3-(indoline-1-carbonyl)-4-methylbenzenesulfonamide], the “% Inhibition of Apyrase” value stood at 51%.

As for `COc1ccc(C(=O)Nc2ccc(S(=O)(=O)Nc3ccc(Cl)cc3)cc2)cc1` [I-988, N-(4-(N-(4-chlorophenyl)sulfamoyl)phenyl)-4-methoxybenzamide], the “% Inhibition of Apyrase” value is on record as 55%.

`Cc1cc(F)ccc1NC(=O)c1ccc(S(=O)(=O)Nc2cccc(C(F)(F)F)c2)cc1` [I-183, N-(4-fluoro-2-methylphenyl)-4-(N-(3-(trifluoromethyl)phenyl)sulfamoyl)benzamide]: the “% Inhibition of Apyrase” value came out at 67%.

Consider `O=C(Nc1cccc(S(=O)(=O)Nc2cccc(Cl)c2)c1)c1ccc(Br)s1` [I-726, 5-bromo-N-(3-(N-(3-chlorophenyl)sulfamoyl)phenyl)thiophene-2-carboxamide], for which the “% Inhibition of Apyrase” value was determined as 56%.

Take `O=C(Nc1cccc(S(=O)(=O)Nc2ccccc2F)c1)c1cccs1` [I-776, N-(3-(N-(2-fluorophenyl)sulfamoyl)phenyl)thiophene-2-carboxamide]: the “% Inhibition of Apyrase” value worked out at 1%.

Take `Cc1ccc(NS(=O)(=O)c2ccc(C(=O)N3c4ccccc4CC3C)cc2)cc1` (stereo not shown) [I-391, 4-(2-methylindoline-1-carbonyl)-N-(p-tolyl)benzenesulfonamide]: the “% Inhibition of Apyrase” value was 62%.

As for `O=C(Nc1ccccc1NS(=O)(=O)c1ccc(F)cc1)c1cccc(S(=O)(=O)C(F)(F)F)c1` [I-833, N-(2-((4-fluorophenyl)sulfonamido)phenyl)-3-((trifluoromethyl)sulfonyl)benzamide], the “% Inhibition of Apyrase” value stood at 58%.

For the compound `Cc1cc(S(=O)(=O)Nc2ccc(C(=O)Nc3ccc4c(c3)OCO4)cc2)ccc1F` [I-920, N-(benzo[d][1,3]dioxol-5-yl)-4-((4-fluoro-3-methylphenyl)sulfonamido)benzamide], the “% Inhibition of Apyrase” value was found to be 57%.

On to `O=C(Nc1cccc(S(=O)(=O)Nc2ccccc2Cl)c1)c1cnc(Cl)c(Cl)c1` [I-756, 5,6-dichloro-N-(3-(N-(2-chlorophenyl)sulfamoyl)phenyl)nicotinamide], for which the “% Inhibition of Apyrase” value is reported as 30%.

`C#Cc1cccc(NC(=O)c2cccc(S(=O)(=O)Nc3ccc(Cl)cc3)c2)c1` [I-237, 3-(N-(4-chlorophenyl)sulfamoyl)-N-(3-ethynylphenyl)benzamide]: the “% Inhibition of Apyrase” value is 76%.

For the compound `COc1ccc(N(C)S(=O)(=O)c2cccc(C(=O)Nc3ccc(OC)c(Cl)c3)c2)cc1` [I-546, N-(3-chloro-4-methoxyphenyl)-3-(N-(4-methoxyphenyl)-N-methylsulfamoyl)benzamide], the “% Inhibition of Apyrase” value is 53%.

Take `Cc1ccc(NC(=O)c2ccc(S(=O)(=O)Nc3ccc(Cl)cc3)cc2)cc1S(=O)(=O)N(C)C` [I-390, 4-(N-(4-chlorophenyl)sulfamoyl)-N-(3-(N,N-dimethylsulfamoyl)-4-methylphenyl)benzamide]: the “% Inhibition of Apyrase” value was 62%.

Take `O=C(Nc1ccccc1NS(=O)(=O)c1cccs1)c1ccc(Cl)cc1` [I-832, 4-chloro-N-(2-(thiophene-2-sulfonamido)phenyl)benzamide]: the “% Inhibition of Apyrase” value stood at 58%.

Turning to `CN(c1ccccc1)S(=O)(=O)c1cccc(NC(=O)c2cccs2)c1` [I-710, N-(3-(N-methyl-N-phenylsulfamoyl)phenyl)thiophene-2-carboxamide], the “% Inhibition of Apyrase” value was 60%.

For `Cc1cnc(NC(=O)c2cccc(NS(=O)(=O)c3ccc(Cl)c(Cl)c3)c2)[nH]1` [I-633, 3-((3,4-dichlorophenyl)sulfonamido)-N-(5-methyl-1H-imidazol-2-yl)benzamide], the “% Inhibition of Apyrase” value turned out to be 60%.

As for `Cc1ccc(S(=O)(=O)Nc2ccc(F)cc2)cc1C(=O)N1c2ccccc2CC1C` (stereo not shown) [I-544, N-(4-fluorophenyl)-4-methyl-3-(2-methylindoline-1-carbonyl)benzenesulfonamide], the “% Inhibition of Apyrase” value is given as 54%.

On to `Cc1ccc(S(=O)(=O)Nc2cccc(NC(=O)c3ccc4c(c3)OCCO4)c2)cc1C` [I-227, N-(3-((3,4-dimethylphenyl)sulfonamido)phenyl)-2,3-dihydrobenzo[b][1,4]dioxine-6-carboxamide], for which the “% Inhibition of Apyrase” value is 71%.

With `COc1ccccc1NS(=O)(=O)c1ccc(NC(=O)c2cccc(C#N)c2)cc1` [I-997, 3-cyano-N-(4-(N-(2-methoxyphenyl)sulfamoyl)phenyl)benzamide], the “% Inhibition of Apyrase” value is recorded as 43%.

For `O=C(Nc1ccc2c(c1)OCO2)c1ccc(NS(=O)(=O)c2cccc(F)c2)cc1` [I-953, N-(benzo[d][1,3]dioxol-5-yl)-4-((3-fluorophenyl)sulfonamido)benzamide], the “% Inhibition of Apyrase” value was 26%.

On to `O=C(Nc1ccc(F)c(Cl)c1)c1cccc(S(=O)(=O)Nc2ccc(F)cc2)c1` [I-450, N-(3-chloro-4-fluorophenyl)-3-(N-(4-fluorophenyl)sulfamoyl)benzamide], for which the “% Inhibition of Apyrase” value was found to be 61%.

As for `Cc1cccc(NC(=O)c2ccc(NS(=O)(=O)c3ccc(Br)cc3)cc2)c1` [I-936, 4-((4-bromophenyl)sulfonamido)-N-(m-tolyl)benzamide], the “% Inhibition of Apyrase” value was found to be 52%.

Consider `CC1Cc2ccccc2N1S(=O)(=O)c1cccc(C(=O)Nc2ccccc2C(C)(C)C)c1` (stereo not shown) [I-534, N-(2-(tert-butyl)phenyl)-3-((2-methylindolin-1-yl)sulfonyl)benzamide], for which the “% Inhibition of Apyrase” value is reported as 54%.

With `O=C(Nc1ccc2c(c1)CCC2)c1cccc(S(=O)(=O)N2CCc3ccccc32)c1` [I-539, N-(2,3-dihydro-1H-inden-5-yl)-3-(indolin-1-ylsulfonyl)benzamide], the “% Inhibition of Apyrase” value came to 54%.

In the case of `CC1Cc2ccccc2N1C(=O)c1ccc(S(=O)(=O)Nc2ccccc2)cc1` (stereo not shown) [I-381, 4-(2-methylindoline-1-carbonyl)-N-phenylbenzenesulfonamide], the “% Inhibition of Apyrase” value is recorded as 72%.

For `O=C(Nc1cccc(S(=O)(=O)Nc2ccc(Br)cc2)c1)c1ccc2c(c1)OCO2` [I-232, N-(3-(N-(4-bromophenyl)sulfamoyl)phenyl)benzo[d][1,3] dioxole-5-carboxamide], the “% Inhibition of Apyrase” value was 65%.

Turning to `O=C(Nc1cccc(C(F)(F)F)c1)c1ccc(S(=O)(=O)Nc2ccccc2F)cc1` [I-407, 4-(N-(2-fluorophenyl)sulfamoyl)-N-(3-(trifluoromethyl)phenyl)benzamide], the “% Inhibition of Apyrase” value stood at 30%.

On to `O=C(c1cccc(S(=O)(=O)N2CCc3ccccc32)c1)N1CCCc2ccccc21` [I-498, (3,4-dihydroquinolin-1(2H)-yl)(3-(indolin-1-ylsulfonyl)phenyl)methanone], for which the “% Inhibition of Apyrase” value is on record as 57%.

Take `O=C(Nc1ccc(SC(F)F)cc1)c1ccc(NS(=O)(=O)c2cccc([N+](=O)[O-])c2)cc1` [I-901, N-(4-((difluoromethyl)thio)phenyl)-4-((3-nitrophenyl)sulfonamido)benzamide]: the “% Inhibition of Apyrase” value is given as 64%.

As to `O=C(Nc1ccc(S(=O)(=O)Nc2cccc(Cl)c2)cc1)c1ccc(F)cc1` [I-990, N-(4-(N-(3-chlorophenyl)sulfamoyl)phenyl)-4-fluorobenzamide], the “% Inhibition of Apyrase” value is 53%.

Turning to `COc1ccccc1N(C)S(=O)(=O)c1ccc(C(=O)N2CCCSc3ccccc32)cc1` [I-878, N-(2-methoxyphenyl)-N-methyl-4-(2,3,4,5-tetrahydrobenzo[b][1,4]thiazepine-5-carbonyl)benzenesulfonamide], the “% Inhibition of Apyrase” value came out at 54%.
